Laboratory results reported in PubChem BioAssay AID1919002 (Molecular Pharmacology Branch, DTP, NCI, 2023).

System: 743489-274-T-PDC complex spheroid growth
Assay: Anticancer human tumor 743489-274-T-PDC patient-derived renal cell carcinoma cell line growth inhibition [AhR]
Conditions: for IC50: curve of first compound; for viability, T/C: stronger effect = lower value
Outline: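 Agents were dosed in half-log steps down from roughly clinical Cmax, or from 10 microM where Cmax was unknown, alone and with AhR antagonists. Read-out: percent test/control growth of tumor spheroids containing HUVEC and MSC stromal cells.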

[1] = second compound 0.1 µM, first compound 0.00316 µM
[2] = second compound 0.1 µM, first compound 0.01 µM
[3] = second compound 0.1 µM, first compound 0.0316 µM
[4] = second compound 0.1 µM, first compound 0.1 µM
[5] = second compound 0.316 µM, first compound 0.00316 µM
[6] = second compound 0.316 µM, first compound 0.01 µM
[7] = second compound 0.316 µM, first compound 0.0316 µM
[8] = second compound 0.316 µM, first compound 0.1 µM
[9] = second compound 1 µM, first compound 0.00316 µM
[10] = second compound 1 µM, first compound 0.01 µM
[11] = second compound 1 µM, first compound 0.0316 µM
[12] = second compound 1 µM, first compound 0.1 µM
[13] = second compound 3.16 µM, first compound 0.00316 µM
[14] = second compound 3.16 µM, first compound 0.01 µM
[15] = second compound 3.16 µM, first compound 0.0316 µM
[16] = second compound 3.16 µM, first compound 0.1 µM
[17] = second compound 10 µM, first compound 0.00316 µM
[18] = second compound 10 µM, first compound 0.01 µM
[19] = second compound 10 µM, first compound 0.0316 µM
[20] = second compound 10 µM, first compound 0.1 µM
[21] = second compound 0.1 µM, first compound 0.316 µM
[22] = second compound 0.1 µM, first compound 1 µM
[23] = second compound 0.316 µM, first compound 0.316 µM
[24] = second compound 0.316 µM, first compound 1 µM
[25] = second compound 1 µM, first compound 0.316 µM
[26] = second compound 1 µM, first compound 1 µM
[27] = second compound 3.16 µM, first compound 0.316 µM
[28] = second compound 3.16 µM, first compound 1 µM
[29] = second compound 10 µM, first compound 0.316 µM
[30] = second compound 10 µM, first compound 1 µM
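Also: spheroids exposed to agents for 7 days before readout.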
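For viability, T/C in this document: 100% = DMSO vehicle control wells.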

Row | Compound | IC50 (second compound 0.1 µM) | IC50 (second compound 0.316 µM) | IC50 (second compound 1 µM) | IC50 (second compound 3.16 µM) | IC50 (second compound 10 µM) | viability, T/C [1] | viability, T/C [2] | viability, T/C [3] | viability, T/C [4] | viability, T/C [5] | viability, T/C [6] | viability, T/C [7] | viability, T/C [8] | viability, T/C [9] | viability, T/C [11] | viability, T/C [12] | viability, T/C [15] | viability, T/C [16] | viability, T/C [19] | viability, T/C [20] | also measured
1 | CC[C@@]1(O)C(=O)OCc2c1cc1n(c2=O)Cc2cc3c(CN(C)C)c(O)ccc3nc2-1 + Cc1cncc(-c2nc(NCCc3c[nH]c4ccccc34)c3ncn(C(C)C)c3n2)c1 | > 100 nM | > 100 nM | > 100 nM | > 100 nM | > 100 nM | 98.7% | 94.5% | 93.1% | 97.4% | 105% | 98.6% | 92.8% | 90.4% | 101% | 86.5% | 84.3% | 107% | 84.7% | 123% | 114% | viability, T/C (second compound 0.1 µM, first compound 0.000316 µM): 100%; viability, T/C (second compound 0.1 µM, first compound 0.001 µM): 108%; viability, T/C (second compound 0.316 µM, first compound 0.000316 µM): 105%; viability, T/C (second compound 0.316 µM, first compound 0.001 µM): 110%; viability, T/C (second compound 1 µM, first compound 0.000316 µM): 101%; viability, T/C (second compound 1 µM, first compound 0.001 µM): 105%; viability, T/C [10]: 89.8%; viability, T/C (second compound 3.16 µM, first compound 0.000316 µM): 113%; viability, T/C (second compound 3.16 µM, first compound 0.001 µM): 109%; viability, T/C [13]: 129%; viability, T/C [14]: 101%; viability, T/C (second compound 10 µM, first compound 0.000316 µM): 136%; viability, T/C (second compound 10 µM, first compound 0.001 µM): 123%; viability, T/C [17]: 133%; viability, T/C [18]: 123%
2 | COc1cc(C2c3cc4c(cc3C(OC3OC5COC(C)OC5C(O)C3O)C3COC(=O)C23)OCO4)cc(OC)c1O (stereo not given) + Cc1cncc(-c2nc(NCCc3c[nH]c4ccccc34)c3ncn(C(C)C)c3n2)c1 | > 10000 nM | > 10000 nM | > 10000 nM | > 10000 nM | > 10000 nM | – | – | 97.7% | 88.2% | – | – | 94.1% | 82.6% | – | 90.2% | 87.6% | 95.3% | 87.9% | 131% | 117% | viability, T/C [21]: 88%; viability, T/C [22]: 96.8%; viability, T/C (second compound 0.1 µM, first compound 3.16 µM): 82.3%; viability, T/C (second compound 0.1 µM, first compound 10 µM): 74.6%; viability, T/C [23]: 78.2%; viability, T/C [24]: 80%; viability, T/C (second compound 0.316 µM, first compound 3.16 µM): 75.2%; viability, T/C (second compound 0.316 µM, first compound 10 µM): 78.5%; viability, T/C [25]: 80.5%; viability, T/C [26]: 78.1%; viability, T/C (second compound 1 µM, first compound 3.16 µM): 80.4%; viability, T/C (second compound 1 µM, first compound 10 µM): 80.8%; viability, T/C [27]: 91.4%; viability, T/C [28]: 92.6%; viability, T/C (second compound 3.16 µM, first compound 3.16 µM): 80.1%; viability, T/C (second compound 3.16 µM, first compound 10 µM): 74.8%; viability, T/C [29]: 95.6%; viability, T/C [30]: 110%; viability, T/C (second compound 10 µM, first compound 3.16 µM): 102%; viability, T/C (second compound 10 µM, first compound 10 µM): 100%
3 | Nc1ncn(C2CC(O)C(CO)O2)c(=O)n1 (stereo not given) + Cc1cncc(-c2nc(NCCc3c[nH]c4ccccc34)c3ncn(C(C)C)c3n2)c1 | > 1000 nM | > 1000 nM | > 1000 nM | > 1000 nM | > 1000 nM | 105% | 98.7% | 104% | 95.1% | 99.4% | 99.8% | 93.5% | 96.3% | 109% | 98.5% | 93% | 104% | 100% | 131% | 109% | viability, T/C [21]: 92%; viability, T/C [22]: 96%; viability, T/C [23]: 94.8%; viability, T/C [24]: 94.4%; viability, T/C [10]: 107%; viability, T/C [25]: 106%; viability, T/C [26]: 93.7%; viability, T/C [13]: 104%; viability, T/C [14]: 108%; viability, T/C [27]: 103%; viability, T/C [28]: 98.4%; viability, T/C [17]: 113%; viability, T/C [18]: 114%; viability, T/C [29]: 107%; viability, T/C [30]: 120%
